Source: patent US20240238424A1, “HETEROBIFUNCTIONAL COMPOUNDS AND METHODS OF TREATING DISEASE” (Halda Therapeutics OpCo, Inc., priority 2021, published 2024)

Key:
HeLa KRas G12C cells = test: Cellular growth inhibition assay (CTG), HeLa KRas G12C cells; format: cell-based; settings: Homo sapiens, CellTiter-Glo 2.0, day-5
Procedure: Cells were seeded in Poly-D-lysine-treated 384-well white plates, with 25 μL cell suspension at 250 cells/well for continuous treatments, and 1000 cells/well for washout treatments. Plates were spun at 300×g for 3 minutes, and cells were cultured at 37° C. with 5% CO2 in a humidified tissue culture incubator.
After 24 hours, the test compounds were diluted with cell culture medium in 96 deep well plates. DMSO was used as a negative control. A 25 μL aliquot of compound-containing medium was added in each well, at a final top concentration of 10 μM or 30 μM test compound, with 3-fold dilutions. For washout assays, after 4 hours, cell medium with compound was removed, and the cells were washed with 75p L fresh medium. Plates were then spun at 300×g for 3 minutes and replaced with 50 μL fresh medium in each well. Plates were then spun at 300×g for 3 minutes again and cultured at 37° C. with 5% CO2.
At day-0 and day-5 of compound treatments, cell viability was quantified with CellTiter-Glo 2.0 (Promega). After equilibrating cell plates at room temperature for 30 minutes, 25 μL CellTiter-Glo 2.0 reagent was dispensed into each well (on top of 50 μL of cell culture). Plates were mixed on a shaker for 2 minutes at 500 rpm, followed by a 10-minute incubation at room temperature. Luminescence readings were measured with an EnVision Plate Reader. Data was normalized to DMSO treated day-0 cell wells. A four-parameter non-linear regression curve fit was applied to dose-response data in Prism to determine the half maximal growth inhibitory concentration (GI50) of each compound.

GSPT1 = target: T1, GSPT1 (Homo sapiens, UniProt P15170+Q96SW2); test: GSPT1 HiBit degradation assay; format: cell-based; settings: Table 3; HEK293 LgBiT cells expressing GSPT1_HiBiT, luminescence after 6 hours
T1 construct: host or cells: HEK293 LgBiT cell line
T1 sequence (P15170 whole entry): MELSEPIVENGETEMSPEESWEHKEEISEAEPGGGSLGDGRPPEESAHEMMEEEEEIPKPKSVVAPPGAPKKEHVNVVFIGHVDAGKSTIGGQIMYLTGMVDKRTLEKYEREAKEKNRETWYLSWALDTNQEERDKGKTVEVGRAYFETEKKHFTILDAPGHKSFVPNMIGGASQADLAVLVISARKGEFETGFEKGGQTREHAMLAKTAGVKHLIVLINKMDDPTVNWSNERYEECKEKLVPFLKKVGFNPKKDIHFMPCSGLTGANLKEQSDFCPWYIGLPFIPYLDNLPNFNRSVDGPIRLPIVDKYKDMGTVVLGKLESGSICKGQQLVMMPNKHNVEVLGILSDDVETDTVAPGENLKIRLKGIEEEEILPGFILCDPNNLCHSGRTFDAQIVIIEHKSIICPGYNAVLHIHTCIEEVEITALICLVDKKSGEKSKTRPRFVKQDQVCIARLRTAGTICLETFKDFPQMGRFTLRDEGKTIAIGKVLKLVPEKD
T1 sequence (Q96SW2 whole entry): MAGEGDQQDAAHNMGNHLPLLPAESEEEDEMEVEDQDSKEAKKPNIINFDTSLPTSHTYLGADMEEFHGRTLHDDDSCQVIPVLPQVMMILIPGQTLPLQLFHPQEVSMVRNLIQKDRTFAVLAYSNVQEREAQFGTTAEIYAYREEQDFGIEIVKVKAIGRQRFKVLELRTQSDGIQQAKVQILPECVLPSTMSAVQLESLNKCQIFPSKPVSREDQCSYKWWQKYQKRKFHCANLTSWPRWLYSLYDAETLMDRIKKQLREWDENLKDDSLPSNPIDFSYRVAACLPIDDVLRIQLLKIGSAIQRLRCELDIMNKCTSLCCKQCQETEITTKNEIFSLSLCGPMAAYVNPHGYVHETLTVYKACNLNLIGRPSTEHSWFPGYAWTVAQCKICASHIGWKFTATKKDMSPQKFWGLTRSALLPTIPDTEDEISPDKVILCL
T1 sequence (Q16531 whole entry partner): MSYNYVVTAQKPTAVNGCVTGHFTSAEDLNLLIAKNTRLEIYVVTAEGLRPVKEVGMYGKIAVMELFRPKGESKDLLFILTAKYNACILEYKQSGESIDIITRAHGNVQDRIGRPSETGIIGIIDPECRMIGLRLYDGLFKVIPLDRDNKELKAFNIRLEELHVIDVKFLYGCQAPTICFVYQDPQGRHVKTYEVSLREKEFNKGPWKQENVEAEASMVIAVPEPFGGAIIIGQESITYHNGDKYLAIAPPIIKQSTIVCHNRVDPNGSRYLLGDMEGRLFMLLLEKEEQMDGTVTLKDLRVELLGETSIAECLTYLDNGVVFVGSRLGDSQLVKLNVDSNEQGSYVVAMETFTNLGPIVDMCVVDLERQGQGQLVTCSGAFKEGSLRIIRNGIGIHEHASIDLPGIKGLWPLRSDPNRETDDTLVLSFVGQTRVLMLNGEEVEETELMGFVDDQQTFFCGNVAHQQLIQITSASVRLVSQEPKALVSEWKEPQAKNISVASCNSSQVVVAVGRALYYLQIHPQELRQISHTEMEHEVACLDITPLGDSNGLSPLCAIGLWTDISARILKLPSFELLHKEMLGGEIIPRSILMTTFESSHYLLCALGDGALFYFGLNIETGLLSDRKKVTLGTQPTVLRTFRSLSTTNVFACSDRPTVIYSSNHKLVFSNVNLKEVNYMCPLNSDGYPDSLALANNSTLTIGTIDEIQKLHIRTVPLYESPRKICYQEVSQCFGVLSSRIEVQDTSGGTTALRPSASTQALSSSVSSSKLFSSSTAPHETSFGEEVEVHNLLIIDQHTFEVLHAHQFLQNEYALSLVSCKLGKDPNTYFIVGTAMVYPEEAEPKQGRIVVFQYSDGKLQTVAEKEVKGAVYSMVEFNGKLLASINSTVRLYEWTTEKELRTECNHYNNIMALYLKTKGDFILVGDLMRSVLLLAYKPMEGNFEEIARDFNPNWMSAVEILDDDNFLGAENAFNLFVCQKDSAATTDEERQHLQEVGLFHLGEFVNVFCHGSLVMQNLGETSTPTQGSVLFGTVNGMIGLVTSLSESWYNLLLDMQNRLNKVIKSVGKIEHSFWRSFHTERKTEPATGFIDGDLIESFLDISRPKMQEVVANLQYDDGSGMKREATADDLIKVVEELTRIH
Outline: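 HEK293 cells stably expressing LgBiT and GSPT1-HiBiT, seeded 18-24 h before dosing, were treated with titrated compound plus endurazine (0.5× final) at 37 °C. Luminescence loss after 6 h reflects GSPT1 degradation; DC50 is the concentration giving 50% degradation.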

SMILES	GI50 (HeLa KRas G12C cells) [µM]	DC50 (GSPT1) [µM]
C=C(F)C(=O)N1CCN(c2nc(OC[C@@H]3CCCN3CCOCCOCCOCCOCCOCCOCCOCCOCCc3cc(Cl)cc(NC(=O)NCc4ccc5c(c4)CN(C4CCC(=O)NC4=O)C5=O)c3)nc3c2CCN(c2cccc4cccc(Cl)c24)C3)C[C@@H]1CC#N (stereo partly drawn) [Compound I-11, 1-[3-chloro-5-[2-[2-[2-[2-[2-[2-[2-[2-[2-[(2S)-2-[[7-(8-chloro-1-naphthyl)-4-[(3S)-3-(cyanomethyl)-4-(2-fluoroprop-2-enoyl)piperazin-1-yl]-6,8-dihydro-5H-pyrido[3,4-d]pyrimidin-2-yl]oxymethyl]pyrrolidin-1-yl]ethoxy]ethoxy]ethoxy]ethoxy]ethoxy]ethoxy]ethoxy]ethoxy]ethyl]phenyl]-3-[[2-(2,6-dioxo-3-piperidyl)-1-oxo-isoindolin-5-yl]methyl]urea]	> 10	> 10
C=C(F)C(=O)N1CCN(c2nc(OC[C@@H]3CCCN3CCOCCOCCOCCOCCOCCOCCOCCOCCOCCOCCc3cc(Cl)cc(NC(=O)NCc4ccc5c(c4)CN(C4CCC(=O)NC4=O)C5=O)c3)nc3c2CCN(c2cccc4cccc(Cl)c24)C3)C[C@@H]1CC#N (stereo partly drawn) [Compound I-12, 1-[3-chloro-5-[2-[2-[2-[2-[2-[2-[2-[2-[2-[2-[2-[(2S)-2-[[7-(8-chloro-1-naphthyl)-4-[(3S)-3-(cyanomethyl)-4-(2-fluoroprop-2-enoyl)piperazin-1-yl]-6,8-dihydro-5H-pyrido[3,4-d]pyrimidin-2-yl]oxymethyl]pyrrolidin-1-yl]ethoxy]ethoxy]ethoxy]ethoxy]ethoxy]ethoxy]ethoxy]ethoxy]ethoxy]ethoxy]ethyl]phenyl]-3-[[2-(2,6-dioxo-3-piperidyl)-1-oxo-isoindolin-5-yl]methyl]urea]	3 to 10	5 to 10
C=CC(=O)N1CCN(c2nc(NCCOCCOCCOCCOCCOCCOCCOCCOCCOc3cc(Cl)cc(NC(=O)NCc4ccc5c(c4)CN(C4CCC(=O)NC4=O)C5=O)c3)nc3c(F)c(-c4cc(O)cc5ccccc45)c(Cl)cc23)CC1 (stereo not shown) [Compound I-13, 1-[3-chloro-5-[2-[2-[2-[2-[2-[2-[2-[2-[2-[[6-chloro-8-fluoro-7-(3-hydroxy-1-naphthyl)-4-(4-prop-2-enoylpiperazin-1-yl)quinazolin-2-yl]amino]ethoxy]ethoxy]ethoxy]ethoxy]ethoxy]ethoxy]ethoxy]ethoxy]ethoxy]phenyl]-3-[[2-(2,6-dioxo-3-piperidyl)-1-oxo-isoindolin-5-yl]methyl]urea]	> 10	> 10
C=CC(=O)N1CCN(c2nc(NCCOCCOCCOCCOCCOCCOCCOCCOCCOCCOCCOc3cc(Cl)cc(NC(=O)NCc4ccc5c(c4)CN(C4CCC(=O)NC4=O)C5=O)c3)nc3c(F)c(-c4cc(O)cc5ccccc45)c(Cl)cc23)CC1 (stereo not shown) [Compound I-14, 1-[3-chloro-5-[2-[2-[2-[2-[2-[2-[2-[2-[2-[2-[2-[[6-chloro-8-fluoro-7-(3-hydroxy-1-naphthyl)-4-(4-prop-2-enoylpiperazin-1-yl)quinazolin-2-yl]amino]ethoxy]ethoxy]ethoxy]ethoxy]ethoxy]ethoxy]ethoxy]ethoxy]ethoxy]ethoxy]ethoxy]phenyl]-3-[[2-(2,6-dioxo-3-piperidyl)-1-oxo-isoindolin-5-yl]methyl]urea]	> 10	> 10
C=CC(=O)N1CCN(c2nc(NCCOCCOCCOCCOCCOCCOCCOCCOCCc3cc(Cl)cc(NC(=O)NCc4ccc5c(c4)CN(C4CCC(=O)NC4=O)C5=O)c3)nc3c(F)c(-c4cc(O)cc5ccccc45)c(Cl)cc23)CC1 (stereo not shown) [Compound I-15, 1-[3-chloro-5-[2-[2-[2-[2-[2-[2-[2-[2-[2-[[6-chloro-8-fluoro-7-(3-hydroxy-1-naphthyl)-4-(4-prop-2-enoylpiperazin-1-yl)quinazolin-2-yl]amino]ethoxy]ethoxy]ethoxy]ethoxy]ethoxy]ethoxy]ethoxy]ethoxy]ethyl]phenyl]-3-[[2-(2,6-dioxo-3-piperidyl)-1-oxo-isoindolin-5-yl]methyl]urea]	> 10	> 10
